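96-well plates; 48 h exposure; 5 concentrations. Endpoints by linear interpolation between flanking doses. Not reached: highest tested concentration assigned. TGI is the concentration that stops growth completely.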
Key:
Assay in all cases: NCI tumour cell line growth inhibition, 48 h
CAKI-1 renal = tested on: CAKI-1 renal
RXF 393 renal = tested on: RXF 393 renal
T-47D breast = tested on: T-47D breast
SF-268 CNS = tested on: SF-268 CNS
SK-MEL-2 melanoma = tested on: SK-MEL-2 melanoma
MDA-MB-231 breast = tested on: MDA-MB-231 breast
U251 CNS = tested on: U251 CNS
NCI-H460 lung = tested on: NCI-H460 lung
UO-31 renal = tested on: UO-31 renal
OVCAR-4 ovarian = tested on: OVCAR-4 ovarian

Compound: CC(C)(N=NC(C)(C)C1=NCCN1)C1=NCCN1
- TGI (CAKI-1 renal): > 100 µM
- TGI (RXF 393 renal): > 100 µM
- TGI (T-47D breast): > 100 µM
- TGI (SF-268 CNS): > 100 µM
- TGI (SK-MEL-2 melanoma): > 100 µM
- TGI (MDA-MB-231 breast): > 100 µM
- TGI (U251 CNS): > 100 µM
- TGI (NCI-H460 lung): > 100 µM
- TGI (UO-31 renal): > 100 µM
- TGI (OVCAR-4 ovarian): > 100 µM

Compound: O=[N+]([O-])/C(C(Cl)=C(Cl)Cl)=C(/Sc1ccccc1)N1CCOCC1
- TGI (CAKI-1 renal): 13 µM
- TGI (RXF 393 renal): 3.7 µM
- TGI (T-47D breast): 16 µM
- TGI (SF-268 CNS): 17 µM
- TGI (SK-MEL-2 melanoma): 18.1 µM
- TGI (MDA-MB-231 breast): 19.8 µM
- TGI (U251 CNS): 23.5 µM
- TGI (NCI-H460 lung): 27.1 µM
- TGI (UO-31 renal): 16.6 µM
- TGI (OVCAR-4 ovarian): 28.4 µM

Source: PubChem BioAssay (NCI)
